Ends that are not written are not given here.

Data set [1] has as its target T1, ICAM-1 on human endothelial cells (Homo sapiens, UniProt P05362).
T1 construct: endogenous in cells
The data set is described as follows: Competition of binding of anti-ICAM nanocarriers to human endothelial cells by synthetic peptides. The data set is classed as cell-based. An excerpt: (§1) (A) ELISA measurement of the binding of 7-mer peptide expressing phage library to immobilized recombinant ICAM-1 (consisting of the two most membrane-distal Ig domains—1 and 2—of mouse ICAM-1 fused to human Fc or hFc), versus their binding to control hFc. (B) Relative specificity and (C) relative affinity of ICAM-1-targeting peptide phages, determined by ELISA from the experiment in (A). (D) Relative binding of phages expressing 7-mer peptides to native ICAM-1 expressed on the surface of HV5 mouse endothelial cells, either control or activated with TNFalpha to mimic a disease phenotype. Binding was determined by microscopy using a fluorescently-labeled antibody to the phage capsid. The line in the graph indicates the level of binding of A1 phage to 293 cells, which are voided of ICAM-1-expression. (E, F) Endocytosis (1 h, 37° C.) of phages expressing 7-mer peptides by control mouse endothelial cells (E) or mouse endothelial cells incubated in the presence of 3 mM amiloride (F) was estimated by microscopy after staining surface-located phages with a Texas red-labeled antibody to the viral capsid, following by cell permeabilization and staining of all (surface and internalized) phages using a FITC-labeled antibody to the viral capsid. (G) Binding of FITC-labeled anti-ICAM polystyrene nanocarriers to human endothelial cells was evaluated by fluorescence microscopy after incubation with cells in the absence (100% level) or presence of anti-ICAM antibody, ICAM-1-targeting synthetic peptides, or peptides with their scramble sequence (e.g., A1sc).

The test system of another data set is human ICAM-1. The data set is described as follows: Binding of clone A1 phages to human ICAM-1/hFc and HUVEC.
The subject of a further data set is ICAM-1 on HUVEC. The data set is described as follows: Leukocyte transmigration across TNF-activated HUVEC monolayer in transwell. The class given is cell-based, human. The note with it: compared to albumin, scrambled peptide and LB2 controls. As for the experimental part:
Human endothelial cells (human umbilical vein endothelial cells (HUVECs)) were grown until formation of a continuous confluent monolayer in a transwell filter located between upper and lower chambers. The cells were then treated with tumor necrosis factor alpha to mimic inflammatory activation of endothelial cells and SDF1a was added to the lower chamber to generate a gradient to attract white blood cells, as during inflammation. Lymphocytes isolated from human peripheral blood were activated with interleukin 2 and added to the upper chamber above endothelial cells in the absence (control) or presence of ICAM-1-targeting peptides A1, B7, B8, B9, B10, or D6. Albumin or a peptide of scrambled sequence were used as negative controls which should not block inflammatory transmigration of leukocytes across endothelial cells. The anti-ICAM antibody LB2, which is known to block leukocyte adhesion to ICAM-1, was used as a positive control which should block such transmigration.
Leukocytes which transmigrated to the lower chamber below endothelial cells were counted to assess their transmigration. FIG. 9 provides a graph of the resulting leukocyte transmigration as a percentage of the control. The peptides annotated with an asterisk in FIG. 9 indicate that the peptide was effective in statistically significant blockage of leukocyte transmigration across endothelial cells.

Data set [2] deals with mouse ICAM-1/hFc. The data set is described as follows: ELISA of 7-mer peptide phage clones on immobilized mouse ICAM-1/hFc vs hFc. The class given is binding. The note with it: phage clone.
Excerpt: as §1, with “(E, F) Endocytosis (1 h, 37° C.) of phages expressing 7-mer peptides by control mouse endothelial cells (E) or mouse endothelial cells incubated in the presence of 3 mM amiloride (F) was estimated by microscopy after staining surface-located phages with a Texas red-labeled antibody to the viral capsid, following by cell permeabilization and staining of all (surface and internalized) phages using a FITC-labeled antibody to the viral capsid.” left out
In general terms: In an ELISA, binding on a coated surface is turned into a signal by an enzyme label.

In data set [3] the target is T2, mouse ICAM-1/hFc (Mus musculus, UniProt P13597).
T2 construct: the two most membrane-distal Ig domains—1 and 2—of mouse ICAM-1 fused to human Fc or hFc
T2 sequence (P13597 28-214): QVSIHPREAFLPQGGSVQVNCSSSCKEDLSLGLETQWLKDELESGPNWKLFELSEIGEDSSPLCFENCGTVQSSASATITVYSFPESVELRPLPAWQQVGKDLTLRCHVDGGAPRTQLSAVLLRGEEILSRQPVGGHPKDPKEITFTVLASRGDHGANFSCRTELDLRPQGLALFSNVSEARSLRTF
Described as above. The class given is binding. As to conditions: phage clone.
Excerpt: as §1, with “(E, F) Endocytosis (1 h, 37° C.) of phages expressing 7-mer peptides by control mouse endothelial cells (E) or mouse endothelial cells incubated in the presence of 3 mM amiloride (F) was estimated by microscopy after staining surface-located phages with a Texas red-labeled antibody to the viral capsid, following by cell permeabilization and staining of all (surface and internalized) phages using a FITC-labeled antibody to the viral capsid.” left out

The next data set concerns the target T3, ICAM-1 (Mus musculus, UniProt P13597).
T3 construct: from tissue
The data set is described as follows: Lung uptake (30 min) of radiolabeled ASM vs anti-ICAM carriers injected iv in mice. The data set is classed as in vivo. As to conditions: 30 min after iv injection. As for the experimental part:
(A) Lung uptake (30 min) of ^125I-labeled anti-transferrin receptor (targeted to the clathrin route), anti-GM1 (anti-ganglioside GM1, targeted to caveoli), or anti-ICAM, injected intravenously in mice as free antibodies or absorbed on the surface of 100 nm polystyrene particles (prototype carrier final size=180 nm). Particles had ^125I-labeled IgG as a tracer. Dashed line=control unspecific IgG carriers. (B) Lung uptake (30 min) of radiolabeled acid sphingomyelinase, a recombinant enzyme which binds to mannose 6 phosphate (M6P) receptor, vs anti-ICAM polystyrene carriers in control C57Bl/6 mice vs diseased ASMKO mice. Data is normalized per gram due to larger lung size in ASMKO mice. […] […]. […] (E) FITC-labeled anti-ICAM carriers of diverse geometry (anti-ICAM polystyrene spheres from 0.1 to 5 μm or 0.1×1×3 μm elliptical disks, and polymorphous anti-ICAM conjugates formed by biotin-streptavidin crosslinking were incubated with TNFα activated human umbilical vein endothelial cells (HUVEC) for 1 h at 37° C. The cells were then washed and fixed, cell surface-located carriers were differentially stained with a texas red-conjugated secondary antibody, and the samples were analyzed by fluorescence microscopy to quantify the percent of carriers internalized by the cells. Data are mean±standard error of the mean for n≧4 mice or ≧20 cells. *p<0.05, **p<0.005, ***p<0.001 by student's t test.

A further data set deals with insulin receptor (Homo sapiens, UniProt P06213). The note with it: reported for other strategies; cited from earlier work.

T3 sequence (P13597 28-537): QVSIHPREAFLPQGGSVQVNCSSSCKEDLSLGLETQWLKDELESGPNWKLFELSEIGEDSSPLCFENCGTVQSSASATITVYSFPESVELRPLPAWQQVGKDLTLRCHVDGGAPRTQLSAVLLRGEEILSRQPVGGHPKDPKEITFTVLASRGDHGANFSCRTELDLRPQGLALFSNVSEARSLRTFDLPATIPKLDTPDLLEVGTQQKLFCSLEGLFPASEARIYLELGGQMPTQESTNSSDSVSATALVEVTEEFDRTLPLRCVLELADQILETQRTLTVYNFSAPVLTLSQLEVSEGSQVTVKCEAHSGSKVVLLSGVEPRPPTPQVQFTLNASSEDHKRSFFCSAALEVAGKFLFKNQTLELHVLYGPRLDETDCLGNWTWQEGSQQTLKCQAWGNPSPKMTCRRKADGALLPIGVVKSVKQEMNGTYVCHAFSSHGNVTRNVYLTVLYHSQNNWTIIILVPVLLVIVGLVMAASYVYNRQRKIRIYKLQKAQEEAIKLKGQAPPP
T1 sequence (P05362 28-532): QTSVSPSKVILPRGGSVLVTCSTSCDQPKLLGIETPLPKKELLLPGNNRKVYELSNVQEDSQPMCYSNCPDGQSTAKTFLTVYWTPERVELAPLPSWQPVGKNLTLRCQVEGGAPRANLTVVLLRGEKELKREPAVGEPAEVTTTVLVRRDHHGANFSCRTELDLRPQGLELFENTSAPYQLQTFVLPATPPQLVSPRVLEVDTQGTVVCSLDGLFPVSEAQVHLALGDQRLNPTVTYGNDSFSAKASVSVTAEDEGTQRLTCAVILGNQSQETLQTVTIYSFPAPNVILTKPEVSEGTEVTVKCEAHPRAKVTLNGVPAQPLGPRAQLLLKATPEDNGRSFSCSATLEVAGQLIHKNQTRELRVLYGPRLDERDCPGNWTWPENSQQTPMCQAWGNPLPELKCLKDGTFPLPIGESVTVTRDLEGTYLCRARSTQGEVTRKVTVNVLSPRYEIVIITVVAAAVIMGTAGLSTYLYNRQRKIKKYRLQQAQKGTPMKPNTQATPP

For the molecule YPASYQR [A1, YPASYQR], the “Inhibition of binding of anti-ICAM nanocarriers to human endothelial cells” value in data set [1] is on record as approximately 80 % inhibition. The “Affinity for human ICAM-1 relative to mouse ICAM-1” value with human ICAM-1 was ~70 % affinity of mouse ICAM-1. Besides, in the data set with ICAM-1 on HUVEC, the “Leukocyte transmigration across endothelial cells” value is recorded as “inhibit leukocyte transmigration”. For the same molecule, in the data set on mouse ICAM-1/hFc [2], the “Specificity vs hFc” value is approximately 5.1 fold. Moreover, the “Affinity to immobilized mouse ICAM-1 over non-selected phages” value on mouse ICAM-1/hFc [3] is listed as approximately 4.7 fold.

B1: free ASM: recombinant acid sphingomyelinase, an enzyme that binds to mannose-6-phosphate receptor (protein, UniProt P17405 47-631, looked up)
Sphingomyelin …: LALSDSRVLWAPAEAHPLSPQGHPARLHRIVPRLRDVFGWGNLTCPICKGLFTAINLGLKKEPNVARVGSVAIKLCNLLKIAPPAVCQSIVHLFEDDMVEVWRRSVLSPSEACGLLLGSTCGHWDIFSSWNISLPTVPKPPPKPPSPPAPGAPVSRILFLTDLHWDHDYLEGTDPDCADPLCCRRGSGLPPASRPGAGYWGEYSKCDLPLRTLESLLSGLGPAGPFDMVYWTGDIPAHDVWHQTRQDQLRALTTVTALVRKFLGPVPVYPAVGNHESTPVNSFPPPFIEGNHSSRWLYEAMAKAWEPWLPAEALRTLRIGGFYALSPYPGLRLISLNMNFCSRENFWLLINSTDPAGQLQWLVGELQAAEDRGDKVHIIGHIPPGHCLKSWSWNYYRIVARYENTLAAQFFGHTHVDEFEVFYDEETLSRPLAVAFLAPSATTYIGLNPGYRVYQIDGNYSGSSHVVLDHETYILNLTQANIPGAIPHWQLLYRARETYGLPNTLPTAWHNLVYRMRGDMQLFQTFWFLYHKGHPPSEPCGTPCRLATLCAQLSARADSPALCRHLMPDGSLPEAQSLWPRPLFC
For the molecule B1, in the data set with ICAM-1, the “Lung accumulation, fold lower than ICAM-1 targeting” value is listed as 10 fold.

B2: α-L-iduronidase: enzyme targeted to insulin receptor, reported brain delivery strategy (protein, UniProt P35475 28-653, looked up)
Alpha-L-iduronidase: APHLVHVDAARALWPLRRFWRSTGFCPPLPHSQADQYVLSWDQQLNLAYVGAVPHRGIKQVRTHWLLELVTTRGSTGRGLSYNFTHLDGYLDLLRENQLLPGFELMGSASGHFTDFEDKQQVFEWKDLVSSLARRYIGRYGLAHVSKWNFETWNEPDHHDFDNVSMTMQGFLNYYDACSEGLRAASPALRLGGPGDSFHTPPRSPLSWGLLRHCHDGTNFFTGEAGVRLDYISLHRKGARSSISILEQEKVVAQQIRQLFPKFADTPIYNDEADPLVGWSLPQPWRADVTYAAMVVKVIAQHQNLLLANTTSAFPYALLSNDNAFLSYHPHPFAQRTLTARFQVNNTRPPHVQLLRKPVLTAMGLLALLDEEQLWAEVSQAGTVLDSNHTVGVLASAHRPQGPADAWRAAVLIYASDDTRAHPNRSVAVTLRLRGVPPGPGLVYVTRYLDNGLCSPDGEWRRLGRPVFPTAEQFRRMRAAEDPVAAAPRPLPAGGRLTLRPALRLPSLLLVHVCARPEKPPGQVTRLRALPLTQGQLVLVWSDEHVGSKCLWTYEIQFSQDGKAYTPVSRKPSTFNLFVFSPDTGAVSGSYRVRALDYWARPGPFSDPVPYLEVPVPRGPPSPGNP
On to B2, for which, in the data set with insulin receptor, the “Brain accumulation, targeting to insulin receptor” value is 0.02 % injected dose per gram (% ID/g).

Source of the values: patent publication US9358305B2, “Targeted carriers for drug delivery across the gastrointestinal epithelium” (University of Maryland, College Park, priority 2009, dated 2016).
